Reference: patent US20120010237A1, “COMPOUNDS HAVING ANTIPARASITIC OR ANTI-INFECTIOUS ACTIVITY” (The Government of the United States of America dba The …, priority 2008, published 2012)
“And” between values parts separate entries of the source, which are not always exact repeats. Identical values can stand only once. Like-named read-outs stand apart in the source and are kept apart here.

How the values were obtained:
[1] = tested on: P. falciparum (D6, Dd2, Tm90.C2B); experiment: In vitro activity and pharmaco-resistance pattern against a panel of P. falciparum parasites; type: cell-based, Plasmodium falciparum; details: for reduction of potency relative to ELQ-121: in vitro, relative to the 5,7-difluoro parent ELQ-121; for cross-resistance / sensitivity pattern across strains: atovaquone-resistant Tm90.C2B compared with D6 and Dd2, in words; for antiplasmodial activity in vitro (in words): structure-activity comparison with endochin
Description: (§1) Plasmodium falciparum strains D6 and Dd2 were obtained from the MR4 (ATCC, Manassas, Va., USA). D6 is sensitive to chloroquine but mildly resistant to mefloquine while Dd2 is resistant to multiple quinoline and antifolate antimalarial agents. Tm90.C2B is resistant to atovaquone, chloroquine, mefloquine, and quinine.
(§2) Three different laboratory strains of P. falciparum were cultured in human erythrocytes by standard methods under a low oxygen atmosphere (5% O2, 5% CO2, 90% N2) in an environmental chamber as described in Trager, W., and J. B. Jensen. 1976. Human malaria parasites in continuous culture. Science 193:673-5. The culture medium was RPMI-1640, supplemented with 25 mM HEPES buffer, 25 mg/L gentamicin sulfate, 45 mg/L hypoxanthine, 10 mM glucose, 2 mM glutamine, and 0.5% Albumax II (complete medium). The parasites were maintained in fresh human erythrocytes suspended at a 2% hematocrit in complete medium at 37° C. Stock cultures were sub-passaged every 3 to 4 days by transfer of infected red cells to a flask containing complete medium and uninfected erythrocytes.
(§3) In vitro antimalarial activity of the compounds was assessed by the SYBR Green I fluorescence-based method (the “MSF assay”) described previously by Smilkstein, M., N. Sriwilaijaroen, J. X. Kelly, P. Wilairat, and M. Riscoe. 2004. Simple and inexpensive fluorescence-based technique for high-throughput antimalarial drug screening. Antimicrob Agents Chemother 48:1803-6 with minor modifications (Winter, R. W., J. X. Kelly, M. J. Smilkstein, R. Dodean, G. C. Bagby, R. K. Rathbun, J. I. Levin, D. Hinrichs, and M. K. Riscoe. 2006. Evaluation and lead optimization of anti-malarial acridones. Exp Parasitol 114:47-56). Experiments were set up in triplicate in 96 well plates (Costar, Corning) with two-fold dilutions of each drug across the plate in a total volume of 100 microliters and at a final red blood cell concentration of 2% (v/v). Stock solutions of each drug were prepared by dissolving in ethanol or dimethylsulfoxide (as appropriate) at 10 mM. […] Automated pipeting and dilution was carried out with the aid of a programmable Precision 2000 robotic station (BioTek, Winooski, Vt.). An initial parasitemia of 0.2% was attained by addition of normal uninfected red cells to a stock culture of asynchronous parasite infected red cells (PRBC). The plates were incubated for 72 hrs at 37° C. in an atmosphere of 5% CO2, 5% O2, and 90% N2. After this period the SYBR Green I dye-detergent mixture (100 μl) was added and the plates were incubated at room temperature for an hour in the dark and then placed in a 96-well fluorescence plate reader (Spectramax Gemini-EM, […]) for analysis with excitation and emission wavelength bands centered at 497 and 520 nm, respectively.
(§4) The compounds were screened for antiplasmodial activity in vitro against chloroquine (CQ) sensitive (D6), multidrug resistant (Dd2), and chloroquine/quinine/atovaquone (ATV)-resistant (Tm90.C2B) strains of P. falciparum.

P. cathemerium = details: P. cathemerium/canary; cited from earlier work
[2] = tested on: Plasmodium falciparum strain Tm90.C2B; type: cell-based
Description: as §1, §2
In vitro antimalarial activity of the compounds was assessed by the SYBR Green I fluorescence-based method (the “MSF assay”) described previously by Smilkstein, M., N. Sriwilaijaroen, J. X. Kelly, P. Wilairat, and M. Riscoe. 2004. Simple and inexpensive fluorescence-based technique for high-throughput antimalarial drug screening. Antimicrob Agents Chemother 48:1803-6 with minor modifications (Winter, R. W., J. X. Kelly, M. J. Smilkstein, R. Dodean, G. C. Bagby, R. K. Rathbun, J. I. Levin, D. Hinrichs, and M. K. Riscoe. 2006. Evaluation and lead optimization of anti-malarial acridones. Exp Parasitol 114:47-56). […] After this period the SYBR Green I dye-detergent mixture (100 μl) was added and the plates were incubated at room temperature for an hour in the dark and then placed in a 96-well fluorescence plate reader (Spectramax Gemini-EM, […]) for analysis with excitation and emission wavelength bands centered at 497 and 520 nm, respectively. […]

P. lophurae = P. lophurae in the turkey; cited from earlier work
P. gallinaceum = P. gallinaceum in the chick; cited from earlier work
malaria infections = details: mice to non-human primates (Rhesus monkeys); cited from earlier work
Haemoproteus = details: male gametocytes undergoing exflagellation, finches infected with Haemoproteus; cited from earlier work
[3] = tested on: Plasmodium falciparum strain D6; experiment: SYBR Green I fluorescence-based MSF assay, in vitro antimalarial activity, strain D6; type: cell-based; details: chloroquine sensitive strain D6, 72 hrs incubation
Description: as §1, §2, §3, §4

[4] = tested on: Plasmodium falciparum strain Dd2; experiment: SYBR Green I fluorescence-based MSF assay, in vitro antimalarial activity, strain Dd2; type: cell-based; details: multidrug resistant strain Dd2, 72 hrs incubation
Description: as §1
Three different laboratory strains of P. falciparum were cultured in human erythrocytes by standard methods under a low oxygen atmosphere (5% O2, 5% CO2, 90% N2) in an environmental chamber as described in Trager, W., and J. B. Jensen. 1976. Human malaria parasites in continuous culture. Science 193:673-5. […]
In vitro antimalarial activity of the compounds was assessed by the SYBR Green I fluorescence-based method (the “MSF assay”) described previously by Smilkstein, M., N. Sriwilaijaroen, J. X. Kelly, P. Wilairat, and M. Riscoe. […] Simple and inexpensive fluorescence-based technique for high-throughput antimalarial drug screening. […] After this period the SYBR Green I dye-detergent mixture (100 μl) was added and the plates were incubated at room temperature for an hour in the dark and then placed in a 96-well fluorescence plate reader (Spectramax Gemini-EM, […]) for analysis with excitation and emission wavelength bands centered at 497 and 520 nm, respectively. […]

P. yoelii = type: in vivo
Description: The activity of the ester, ELQ-125, against the blood stages was assessed using a modified Thompson procedure (Arba Ager, 1984). Rodent malaria models, vol. 68/1. Springer-Verlag, Berlin. Mice (female, CFI) were infected intravenously with 1-5 million P. yoelii parasitized erythrocytes from a donor animal. Drug administration was initiated once the parasitemia had risen to between 3 to 5% as determined microscopically by examination of Giemsa-stained blood smears. The test compound, ELQ-125, was taken into NeoBee® M-5 (Stephan Company, Northfield, Ill., USA) and used without dilution. The drug was administered by gavage once daily for 3 days. On the 4th day blood films were prepared and the extent of parasitemia was determined microscopically. ED50 and ED90 values (mg/kg/day) were derived from the dose required to reduce the parasite burden by 50% and 90%, respectively, relative to drug-free controls. The procedures involved, together with all matters relating to the care and housing of the animals used in this study, were approved by the Portland VA Medical Center Institutional Animal Care and Use Committee (approval #0807).
Prodrugs containing a water-soluble pro-moiety that could be metabolically released after drug administration were designed and synthesized. […] In each case, ELQ-125, a clear and colorless syrup, was administered orally with NeoBee M-5 (vol.=100 μl).

[5] = tested on: Toxoplasma gondii strain 2F; experiment: Anti-T. gondii assay with beta-galactosidase expressing 2F strain in HFF cells; type: cell-based; details: compared with the correlation observed for Plasmodium falciparum
Description: Determination of anti-T. gondii IC50 and TD50 values—use of the 2F strain. This method, which employs tachyzoites of Toxoplasma gondii strain 2F that constitutively expresses cytoplasmic Beta-galactosidase, has been described recently by Jones-Brando et al. (Jones-Brando, L., D'angelo, J., Posner, G H, and Yolken, R., 2006, In vitro inhibition of Toxoplasma gondii by four new derivatives of artemisinin, Antimicrobial Agents and Chemotherapy 50: 4206-8). […] Briefly, each drug was dissolved in ethanol or DMSO, as appropriate, at a concentration of 10 mM and diluted with complete Dulbecco's modified Eagle's medium (DMEM) to 1,000 μM. […] After this period, Triton X-100 is added to inactivate the parasite and the color reactions in the wells were read in a microplate reader. For anti-T. gondii IC50 determinations, the plates are read at 570-650 nm. The amount of absorbance (570-650 nm) in wells containing drug, parasites, and CPRG reagent is compared to that in control wells containing T. gondii, HFF cells and CPRG. The amount of absorbance in these wells is directly proportional to the amount of beta-galactosidase activity and thus correlative to the number of viable tachyzoites in each well. Thus, a decrease in the amount of absorbance indicates an inhibition of parasite growth. […]

[6] = chloroquine/quinine/atovaquone-resistant Tm90.C2B clinical isolate, 72 hrs incubation

Q: Which “reduction of potency relative to ELQ-121” value [1] does the source give for `CCCCCCCc1c(C)[nH]c2c(F)cc(F)cc2c1=O` [6,8-difluoro positional isomer] here?
A: ≈ 2,000 fold

Q: For `CCCCCCCc1c(C)[nH]c2cc(OC)ccc2c1=O` [ELQ-100, endochin], which “efficacy in bird model” value (P. cathemerium) is on record?
A: efficacy in treatment and prevention of malaria

Q: What about the “cross-resistance / sensitivity pattern across strains” value [1] of the same molecule?
A: a modest level of ATV cross-resistance

Q: What about the IC50 [2, 6] of the same molecule?
A: 11.4 nM

Q: What about the “efficacy in treatment and prophylaxis” value (P. lophurae) of the same molecule?
A: demonstrated efficacy in treatment and prophylaxis

Q: What about the “efficacy in treatment and prophylaxis” value (P. gallinaceum) of the same molecule?
A: demonstrated efficacy in treatment and prophylaxis

Q: And the “cure of malaria infections in mammalian species” value (malaria infections)?
A: failed to cure malaria infections

Q: What about the gametocidal action (Haemoproteus) of the same molecule?
A: exerted gametocidal action

Q: And the IC50 [3]?
A: 3 to 4 nM and 3.8 nM

Q: Which “IC50 vs. Dd2” value [4] does the source give for `COc1ccc2c(=O)c(CCCCCCCCCCC(F)(F)F)c(C)[nH]c2c1` [ELQ-103] here?
A: low nanomolar range

Q: What about the “IC50 vs. Tm90.C2B” value [2, 6] of the same molecule?
A: low nanomolar range

Q: What about the “IC50 vs. D6” value [3] of the same molecule?
A: low nanomolar range

Q: Which IC50 [3] does the source give for `CCCCCCCc1c(O)[nH]c2cc(OC)ccc2c1=O` [ELQ-106] here?
A: > 2500 nM

Q: What does the source list for `CCCCCCCc1c(C)[nH]c2cc(Cl)ccc2c1=O` [ELQ-109]?
A: antiplasmodial activity in vitro (in words) [1]: only a modest reduction in in vitro potency; IC50 [3]: 5.8 nM

Q: Which “antiplasmodial activity in vitro (in words)” value (“antiplasmodial activity” for short) [1] does the source give for `CCCCCCCc1c(C)[nH]c2cc(O)ccc2c1=O` [ELQ-117] here?
A: greatly diminishes antiplasmodial activity

Q: Which “reduction of potency relative to ELQ-121” value [1] does the source give for `CCCCCCCc1c(C)nc2cc(F)cc(F)c2c1Cl` [ELQ-119] here?
A: > 1,000 fold

Q: For `CCCCCCCc1c(C)[nH]c2cc(F)ccc2c1=O` [ELQ-120], which “antiplasmodial activity” value [1] is on record?
A: only a modest reduction in in vitro potency

Q: Which IC50 [4] does the source give for `CCCCCCCc1c(C)[nH]c2cc(F)cc(F)c2c1=O` [ELQ-121, 2-Methyl-3-(n-heptyl)-5.7-difluorquinolone] here?
A: ~0.05 nM

Q: What about the “IC50 against Tm90.C2B relative to D6 and Dd2” value ([2]; times higher than IC50 against D6 and Dd2) of the same molecule?
A: about 300 times

Q: And the IC50 [3]?
A: ~0.05 nM

Q: Which “antiplasmodial activity” value [1] does the source give for `CCCCCCCc1c(C)[nH]c2cc(Cl)cc(Cl)c2c1=O` [ELQ-124] here?
A: weak in vitro activity

Q: What does the source list for `CCCCCCCc1c(C)nc2cc(F)cc(F)c2c1OC(=O)OCCOCCOCCOCCOC` [ELQ-125]?
A: parasitemia suppressed relative to controls (P. yoelii; 25 mg/kg/day oral, 3 days, assessed on the day following the last dose): > 99%; parasite status during follow-up (P. yoelii; 25 mg/kg/day oral, 3 days, until euthanized 10 days later): remained parasite-free; clearance of parasites from the bloodstream (P. yoelii; 50 mg/kg/day oral in NeoBee M-5, once daily for 3 days, mice): completely cleared parasites from the bloodstream; clearance of parasites from the bloodstream (P. yoelii; 100 mg/kg/day oral in NeoBee M-5, once daily for 3 days, mice): completely cleared parasites from the bloodstream; ED90 (P. yoelii; oral in 100 μl NeoBee M5, once daily for 3 days, mice): 22 mg/kg/day; in vivo efficacy of the prodrug (in words) (P. yoelii; prodrug ester compared with ELQ-121): greatly enhanced in vivo efficacy

Q: Which “cross-resistance / sensitivity pattern across strains” value [1] does the source give for `CCCCCCCc1c(C)[nH]c2ccccc2c1=O` [ELQ-127] here?
A: equally active against all three parasite strains

Q: What about the “in vitro activity weakened relative to endochin” value ([1]; relative to endochin) of the same molecule?
A: roughly 5 fold

Q: Which “cross-resistance / sensitivity pattern across strains” value [1] does the source give for `CCCCCCCc1c(C)[nH]c2ccc(Cl)cc2c1=O` [ELQ-130] here?
A: equal sensitivity is observed against the atovaquone-resistant Tm90.C2B clinical isolate

Q: And the IC50 [3]?
A: 22.2 nM

Q: What does the source list for `CCCCCCCc1c(C)n(C)c2cc(F)cc(F)c2c1=O` [ELQ-134]?
A: growth inhibitory activity against Toxoplasma gondii (in words) [5]: enhanced growth inhibitory activity; reduction of potency relative to ELQ-121 [1]: about 300 fold
